Experiment [1] has as its system HepG2. Kind of experiment: Antiproliferative activity against human HepG2 cells after 48 hrs by SRB assay. The class given is functional, cell-based. To be noted: HepG2, 48 h. Background: The SRB assay estimates cell density from bound dye.
Experiment [2] concerns MCF7. Kind of experiment: Antiproliferative activity against human MCF7 cells after 48 hrs by SRB assay. As to conditions: MCF7, 48 h. It counts as functional, cell-based.
A short description of experiment [3]: Cytotoxicity against human Hs 371.T cells by MTT assay. It counts as cell-based.
Experiment [4] in a line: Cytotoxicity against mouse AML-12 cells by MTT assay. It counts as cell-based. To be noted: AML12. For orientation: Formazan colour is commonly taken as a measure of viable cells.
Experiment [5] deals with Tubulin beta-5 chain (Homo sapiens) (UniProt P07437). In words: Inhibition of tubulin beta polymerization in human HepG2 cells after 18 to 24 hrs by spectrophotometric method relative to control. It counts as cell-based. The arrangement: concentration or dose not given beside the values. To be noted: concentration not given here.
Experiment [6] in a line: Selectivity ratio of IC50 for human Hs 371.T cells to IC50 for human MCF7 cells.
The target of experiment [7] is Tubulin beta-5 chain (Homo sapiens) (UniProt P07437). In words: Inhibition of tubulin beta polymerization in human MCF7 cells after 18 to 24 hrs by spectrophotometric method relative to control. The class given is cell-based. The arrangement: concentration or dose not given beside the values. To be noted: concentration not given here.
A short description of experiment [8]: Selectivity ratio of IC50 for mouse AML-12 cells to IC50 for human HepG2 cells.
Experiment [9] concerns MCF7. In words: Potency index, ratio of colchicine IC50 to compound IC50 for human MCF7 cells. It counts as functional.

Here are results for 19 molecules from ChEMBL document CHEMBL4002544, “Design, synthesis and cytotoxic activity of certain novel chalcone analogous compounds” (Eur J Med Chem, 2017).

Chain of Tubulin beta-5 chain (Homo sapiens) (P07437 whole entry): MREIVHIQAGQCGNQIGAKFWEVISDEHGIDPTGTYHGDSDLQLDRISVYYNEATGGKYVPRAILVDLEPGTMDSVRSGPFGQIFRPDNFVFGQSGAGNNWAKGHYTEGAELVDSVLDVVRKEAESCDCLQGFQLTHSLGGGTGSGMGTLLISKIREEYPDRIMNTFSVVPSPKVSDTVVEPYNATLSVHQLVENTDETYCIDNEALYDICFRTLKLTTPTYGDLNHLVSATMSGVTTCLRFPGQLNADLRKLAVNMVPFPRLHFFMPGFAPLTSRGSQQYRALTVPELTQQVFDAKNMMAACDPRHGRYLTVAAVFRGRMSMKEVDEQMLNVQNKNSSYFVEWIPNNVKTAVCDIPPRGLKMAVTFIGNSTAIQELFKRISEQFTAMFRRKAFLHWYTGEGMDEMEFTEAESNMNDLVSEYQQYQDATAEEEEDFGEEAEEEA

On to `COc1cccc(C2=NNC(c3ccc(Br)cc3)C2O)c1` (stereo unspecified), for which the half-inhibitory concentration (IC50) (usually the point on the concentration scale where inhibition reaches its midpoint) in experiment [1] amounted to 0.043 µM; in [2], 0.049 µM.
With `COc1cccc(C2=NN(c3ccccc3)C(c3ccc(Cl)cc3)C2O)c1` (stereo unspecified), the IC50 came out at 0.0867 µM in [3], 0.0741 µM in experiment [4], 0.011 µM in experiment [1] and 0.0097 µM in [2]. Besides, the values for the inhibition in [5] and in experiment [7] were 93% and 92.3%, respectively. Moreover, the “Ratio IC50” value in experiment [6] and in experiment [8] was 2.5 - 9 throughout.
With `COc1ccc(C2=NN(c3ccccc3)C(c3ccc(F)cc3)C2O)cc1` (stereo unspecified), the IC50 in experiment [1] is 0.013 µM; in [2] it was 0.016 µM.
`COc1ccc(C2C=C(c3cc(OC)c(OC)c(OC)c3)NC(=S)N2)cc1` (stereo unspecified): the results for the IC50 in experiment [1] and in experiment [2] were 0.09 µM and 0.103 µM, respectively. Moreover, the “Ratio IC50” value in experiment [9] was 2.
On to `COc1cccc(C(=O)C2OC2c2ccc(F)cc2)c1` (stereo unspecified), for which the IC50 was 0.017 µM in experiment [1] and 0.014 µM in [2]. In experiment [9], the “Ratio IC50” value came to 10. In addition, the inhibition (as a rule, the drop in the measured response relative to a control, in per cent) in experiment [7] was found to be 88.4%.
On to `COc1cccc(C2=CC(c3ccc(Cl)cc3)NC(=S)N2)c1` (stereo unspecified), for which the IC50 came to 0.054 µM in experiment [1] and 0.15 µM in experiment [2]. The molecule also yielded an inhibition in [5] of 90.6%. Also, the “Ratio IC50” value in experiment [9] was 2.
As to `COc1cccc(C(=O)C(O)C(Nc2ccc(F)c(Cl)c2)c2ccc(Br)cc2)c1` (stereo unspecified), the half-inhibitory concentration (IC50) turned out to be 0.0902 µM in experiment [3], 0.0372 µM in experiment [1] and 0.0099 µM in [2]. The inhibition in [5] came to 88.5%; in experiment [7] it was 92.2%. The “Ratio IC50” value in [6] is 2.5 - 9.
In the case of `COc1cc(C2=CC(c3ccc(Br)cc3)NC(=S)N2)cc(OC)c1OC` (stereo unspecified), the IC50 amounted to 0.0594 µM in [4], 0.0095 µM in experiment [1] and 0.077 µM in experiment [2]. The molecule further returned an inhibition in experiment [5] of 92.8%. The “Ratio IC50” value is on record as 2 in experiment [9] and 2.5 - 9 in experiment [8].
`COc1cccc(C2=CC(c3ccc(Br)cc3)NC(=S)N2)c1` (stereo unspecified): the IC50 in experiment [1] was 0.034 µM; in experiment [2], 0.135 µM. The “Ratio IC50” value in experiment [9] is 2.
As for `COc1cccc(C2=NNC(c3ccc(Cl)cc3)C2O)c1` (stereo unspecified), the IC50 in experiment [1] amounted to 0.0353 µM; in experiment [2], 0.049 µM.
Regarding `COc1ccc(C2=CC(c3ccc(Br)cc3)NC(=S)N2)cc1` (stereo unspecified), the IC50 in experiment [1] stood at 0.03 µM; in experiment [2] it was 0.126 µM. The same molecule came in with an inhibition in experiment [5] of 91.4%. Further, in experiment [9], the “Ratio IC50” value was 2.
Regarding `COc1cc(C2=CC(c3ccc(F)cc3)NC(=S)N2)cc(OC)c1OC` (stereo unspecified), the values for the IC50 in experiment [1] and in experiment [2] were 0.0619 µM and 0.125 µM, respectively. The “Ratio IC50” value in experiment [9] is 2.
For the molecule `COc1cc(C2=CC(c3ccc(Cl)cc3)NC(=S)N2)cc(OC)c1OC` (stereo unspecified), the IC50 was 0.0885 µM in experiment [4], 0.011 µM in [1] and 0.12 µM in [2]. Further, in [5], the inhibition came to 92.4%. Besides, the entries for the “Ratio IC50” value in [9] and in [8] were 2 and 2.5 - 9, respectively.
Regarding `COc1ccc(C2=NN(c3ccccc3)C(c3ccc(OC)cc3)C2O)cc1` (stereo unspecified), the IC50 in [1] was 0.0102 µM; in experiment [2] it was 0.019 µM.
Consider `COc1cccc(C(=O)C2SC2c2ccc(Br)cc2)c1` (stereo unspecified), for which the IC50 amounted to 0.011 µM in [1] and 0.023 µM in experiment [2]. The inhibition in experiment [5] was found to be 85.7%.
In the case of `COc1cccc(C2=NN(c3ccccc3)C(c3ccc(Br)cc3)C2O)c1` (stereo unspecified), the IC50 in [3] came to 0.474 µM; in experiment [4], 0.0269 µM; in experiment [1], 0.0099 µM; in experiment [2] it was 0.011 µM. The inhibition in [5] stood at 84.6%; in experiment [7], 87.8%. Besides, the “Ratio IC50” value in experiment [6] and in experiment [8] was 2.5 - 9 throughout.
In the case of `COc1ccc(C(=O)C2OC2c2ccc(Cl)cc2)cc1` (stereo unspecified), the IC50 in experiment [1] is 0.015 µM; in experiment [2] it was 0.026 µM.
With `COc1cc2c(c(OC)c1OC)-c1ccc(OC)c(=O)cc1[C@@H](NC(C)=O)CC2` [COLCHICINE], the IC50 in [3] was 0.443 µM; in [4], 0.138 µM; in [1], 0.124 µM; in experiment [2], 0.15 µM.
Consider `COc1cccc(C(=O)C2SC2c2ccc(Cl)cc2)c1` (stereo unspecified), for which the figures for the IC50 in experiment [1] and in experiment [2] were 0.013 µM and 0.015 µM, respectively. The inhibition in [5] turned out to be 88.6%; in experiment [7], 89.3%.
